What was measured:
RARα = RARα (Homo sapiens, UniProt P10276); conditions: α isoform
RXR homodimers = experiment: Activation of RXR homodimers; format: cell-based
Nurr1/RXR heterodimer = experiment: Activation of permissive heterodimer Nurr1/RXR; format: cell-based
PPAR/RXR = experiment: Activation of permissive heterodimer PPAR/RXR; format: cell-based
LXR/RXR = experiment: Activation of permissive heterodimer LXR/RXR; format: cell-based
RAR/RXR = experiment: Activation of non-permissive heterodimer RAR/RXR; format: cell-based
FXR/RXR = experiment: Activation of permissive heterodimer FXR/RXR; format: cell-based
MCF7 cells = experiment: Growth inhibition of MCF7 breast cancer cells, DAPI nuclei count; format: cell-based; conditions: Her2− MCF7 cell line, FIG. 1A; IRX4204 10-1000 nM, trastuzumab 0.1-10 μg/ml
Excerpt: (§1) MCF7 is an ER^+ PR^+ Her2^− cell line. SkBr3 is an ER^− PR^− Her2^+ cell line. […] After a further 6 days, the cells were fixed with 4% paraformaldehyde in phosphate buffered saline (PBS).
(§2) Additionally the panel of breast cancer cell lines was expanded to also include the ER^+ PR^+ Her2^+ cell line BT474 and the ER^+ PR^− Her2^+ cell line MDA-MB-361.

SkBr3 cells = experiment: Growth inhibition of SkBr3 breast cancer cells, DAPI nuclei count; format: cell-based; conditions: Her2+ SkBr3 cell line, FIG. 1B; IRX4204 10-1000 nM, trastuzumab 0.1-10 μg/ml
Excerpt: as §1, §2

RARβ = RARβ (Homo sapiens, UniProt P10826); conditions: β isoform
RARβ, sequence (P10826 whole entry, species assumed, canonical isoform): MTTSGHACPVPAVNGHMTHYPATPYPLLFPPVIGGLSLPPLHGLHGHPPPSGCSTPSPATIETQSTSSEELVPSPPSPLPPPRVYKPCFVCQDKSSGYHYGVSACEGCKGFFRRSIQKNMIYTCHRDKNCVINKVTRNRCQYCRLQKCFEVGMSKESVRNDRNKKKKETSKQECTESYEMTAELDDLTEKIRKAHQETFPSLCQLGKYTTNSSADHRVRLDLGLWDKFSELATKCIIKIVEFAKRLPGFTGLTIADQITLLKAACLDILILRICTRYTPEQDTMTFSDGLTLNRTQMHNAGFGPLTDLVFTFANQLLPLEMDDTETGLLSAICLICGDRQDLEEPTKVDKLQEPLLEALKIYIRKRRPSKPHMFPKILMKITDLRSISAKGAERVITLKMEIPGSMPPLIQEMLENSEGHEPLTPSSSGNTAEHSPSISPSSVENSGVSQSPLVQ

RARγ = RARγ (Homo sapiens, UniProt P13631); conditions: γ isoform
RARγ, sequence (P13631 whole entry, species assumed, canonical isoform): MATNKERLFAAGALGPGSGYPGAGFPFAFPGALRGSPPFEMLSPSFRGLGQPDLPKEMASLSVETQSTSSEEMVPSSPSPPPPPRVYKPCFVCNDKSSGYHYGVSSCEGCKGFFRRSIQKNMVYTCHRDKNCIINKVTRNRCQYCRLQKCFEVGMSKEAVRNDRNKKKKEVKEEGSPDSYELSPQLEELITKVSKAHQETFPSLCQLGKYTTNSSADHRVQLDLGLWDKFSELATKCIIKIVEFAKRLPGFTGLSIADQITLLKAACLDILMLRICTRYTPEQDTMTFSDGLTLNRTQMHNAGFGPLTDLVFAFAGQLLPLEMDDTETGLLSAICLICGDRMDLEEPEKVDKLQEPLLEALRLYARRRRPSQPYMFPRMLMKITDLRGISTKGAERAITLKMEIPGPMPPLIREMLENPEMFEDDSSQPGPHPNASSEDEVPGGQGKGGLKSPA

[1] = system: PPAR/RXR, FXR/RXR, or LXR/RXR; conditions: cited from earlier work

RARα, sequence (P10276 whole entry, species assumed, canonical isoform): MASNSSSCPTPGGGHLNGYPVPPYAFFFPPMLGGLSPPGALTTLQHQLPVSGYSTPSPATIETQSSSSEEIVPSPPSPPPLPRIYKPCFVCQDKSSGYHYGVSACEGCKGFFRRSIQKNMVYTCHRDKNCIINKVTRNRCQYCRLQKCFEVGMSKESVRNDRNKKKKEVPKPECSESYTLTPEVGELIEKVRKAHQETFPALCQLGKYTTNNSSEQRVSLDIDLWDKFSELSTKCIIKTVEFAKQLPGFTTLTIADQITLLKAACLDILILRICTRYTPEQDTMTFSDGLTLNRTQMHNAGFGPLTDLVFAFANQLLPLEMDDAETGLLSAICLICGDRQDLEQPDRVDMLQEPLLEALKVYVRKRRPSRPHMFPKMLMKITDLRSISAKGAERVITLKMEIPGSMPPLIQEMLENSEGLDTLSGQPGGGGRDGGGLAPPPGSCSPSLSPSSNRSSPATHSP

SMILES	RAR EC10 (concentration effective to cause a 10% of maximal activation of the RAR) (RARα) [nM]	activation of RXR homodimers (in words) (RXR homodimers)	activation of the Nurr1/RXR heterodimer (in words) (Nurr1/RXR heterodimer)	activation of PPAR/RXR (in words) (PPAR/RXR)	activation of LXR/RXR (in words) (LXR/RXR)	activation of non-permissive heterodimers such as RAR/RXR (in words) (RAR/RXR)	activation of FXR/RXR (in words) (FXR/RXR)	growth inhibitory effect (in words) (MCF7 cells)	growth inhibitory effect (in words) (SkBr3 cells)	RAR EC10 (concentration effective to cause a 10% of maximal activation of the RAR) (RARβ) [nM]	RAR EC10 (concentration effective to cause a 10% of maximal activation of the RAR) (RARγ) [nM]	activation of one or more of PPAR/RXR, FXR/RXR, or LXR/RXR (in words) [1]
CC(/C=C/[C@@H]1C[C@]1(C)c1ccc2c(c1)C(C)(C)CCC2(C)C)=C\C(=O)O [IRX4204, 3,7-dimethyl-6(S),7(S)-methano,7-[1,1,4,4-tetramethyl-1,2,3,4-tetrahydron-aphth-7-yl]2(E), 4(E) heptadienoic acid]	300	specifically activate	specifically activates	does not activate	does not activate	does not activate	does not activate	neither agent had more than marginal effect	moderate growth inhibitory effect	200	200	–
Cc1cc2c(cc1C1(c3ccc(C(=O)O)cn3)CC1)C(C)(C)CCC2(C)C [LGD268]	–	–	–	–	–	–	–	–	–	–	–	activates one or more

— patent publication US20220211652A1, “USE OF AN RXR AGONIST IN TREATING HER2+ CANCERS” (Io Therapeutics, Inc, priority 2019, published 2022)
